Here are results for ten compounds from PMC9225712, “Rational design of biodegradable sulphonamide candidates treating septicaemia by synergistic dual inhibition of COX-2/PGE2 axis and DHPS enzyme” (Journal of Enzyme Inhibition and Medicinal Chemistry, 2022).

The structures appear in SMILES notation.

The target of one test is T1, ovine COX-1 (Ovis aries, UniProt P05979).
T1 construct: purchased Cayman Chemicals Inc. 560131
T1 sequence (P05979 25-600): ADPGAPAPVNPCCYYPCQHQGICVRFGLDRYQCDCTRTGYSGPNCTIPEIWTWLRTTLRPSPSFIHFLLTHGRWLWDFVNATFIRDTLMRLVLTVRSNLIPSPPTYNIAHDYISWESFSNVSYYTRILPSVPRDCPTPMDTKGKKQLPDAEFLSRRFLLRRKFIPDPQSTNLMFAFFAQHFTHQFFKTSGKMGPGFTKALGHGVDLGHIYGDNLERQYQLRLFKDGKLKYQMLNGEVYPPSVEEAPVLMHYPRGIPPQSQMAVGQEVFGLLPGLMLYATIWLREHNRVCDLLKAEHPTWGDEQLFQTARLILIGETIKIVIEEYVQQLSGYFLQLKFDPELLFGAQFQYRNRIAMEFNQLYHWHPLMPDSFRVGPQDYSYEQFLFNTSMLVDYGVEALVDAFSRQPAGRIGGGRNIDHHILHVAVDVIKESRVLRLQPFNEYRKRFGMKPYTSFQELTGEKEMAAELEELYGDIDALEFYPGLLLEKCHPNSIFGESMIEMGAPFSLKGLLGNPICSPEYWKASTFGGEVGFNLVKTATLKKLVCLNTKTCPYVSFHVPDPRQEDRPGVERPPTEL
The test is described as follows: In vitro COX-1 enzymatic assay (Cayman kit 560131). The conditions noted are these: Mean ± SEM of triplicate determinations. In kind it is biochemical.

Test [1] relates to Salmonella typhi (RCMB 0100104). The test is described as follows: Inhibition zone, agar cup diffusion. In kind it is cell-based. Conditions: Salmonella enterica, 24 h, read-out: inhibition zones (IZ) S. typhi.
Test [2] concerns Shigella dysenteriae (RCMB 0100542). The test is described as follows: Inhibition zone, agar cup diffusion. The conditions noted are these: RCMB0100542, 24 h, read-out: inhibition zones (IZ) S. dysenteriae. In kind it is cell-based.
Test [3] deals with Staphylococcus aureus (RCMB 0100183). The test is described as follows: Inhibition zone, agar cup diffusion. Conditions: RCMB0100183, 24 h, read-out: inhibition zones (IZ) S. aureus.
The subject of test [4] is Staphylococcus epidermidis (RCMB 0100183). The test is described as follows: Inhibition zone, agar cup diffusion. Conditions: RCMB0100183, 24 h, read-out: inhibition zones (IZ) S. epidermidis.
Test [5] relates to Streptococcus mutans (RCMB 0100172). The test is described as follows: Inhibition zone, agar cup diffusion. Conditions: RCMB0100172, 24 h, read-out: inhibition zones (IZ) S. mutans.
Test [6] deals with Bacillus subtilis (RCMB 0100162). The test is described as follows: Inhibition zone, agar cup diffusion. Conditions: RCMB0100162, 24 h, read-out: inhibition zones (IZ) B. subtillis.
The subject of test [7] is Pseudomonas aeruginosa (RCMB 0100243). The test is described as follows: Inhibition zone, agar cup diffusion. Conditions: RCMB0100243, 24 h, read-out: inhibition zones (IZ) P.aeruginosa.
Test [8] concerns Escherichia coli (RCMB 010052). The test is described as follows: Inhibition zone, agar cup diffusion. Conditions: RCMB010052, 24 h, read-out: inhibition zones (IZ) E.coli.
The subject of test [9] is Proteus vulgaris (RCMB 010085). The test is described as follows: Inhibition zone, agar cup diffusion. The conditions noted are these: RCMB010085, 24 h, read-out: inhibition zones (IZ) P. vulgaris.
A further test has as its target T2, human recombinant COX-2 (Homo sapiens, UniProt P35354).
T2 sequence (P35354 18-604): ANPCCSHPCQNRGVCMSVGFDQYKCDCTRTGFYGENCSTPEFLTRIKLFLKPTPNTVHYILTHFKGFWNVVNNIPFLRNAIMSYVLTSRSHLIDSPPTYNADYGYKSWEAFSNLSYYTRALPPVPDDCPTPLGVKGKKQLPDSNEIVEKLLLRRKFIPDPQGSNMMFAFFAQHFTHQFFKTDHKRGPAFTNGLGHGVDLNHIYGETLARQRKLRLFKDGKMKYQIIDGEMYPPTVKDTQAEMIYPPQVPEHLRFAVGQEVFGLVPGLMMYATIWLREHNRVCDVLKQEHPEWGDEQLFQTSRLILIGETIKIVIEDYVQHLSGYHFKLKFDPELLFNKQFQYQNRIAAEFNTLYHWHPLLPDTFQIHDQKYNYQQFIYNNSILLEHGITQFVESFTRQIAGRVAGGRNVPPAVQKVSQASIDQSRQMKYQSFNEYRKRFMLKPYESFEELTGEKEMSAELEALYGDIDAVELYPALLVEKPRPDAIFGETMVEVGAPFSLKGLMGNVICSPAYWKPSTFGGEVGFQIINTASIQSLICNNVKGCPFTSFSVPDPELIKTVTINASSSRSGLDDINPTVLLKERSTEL
The test is described as follows: In vitro COX-2 enzymatic assay (Cayman kit 560131). Conditions: for SI COX-1/COX-2: COX-2 selectivity index: COX-1 IC50/COX-2 IC50.

Regarding `NS(=O)(=O)c1ccc(/N=N/c2ccc(O)c(C(=O)NCc3ccccc3)c2)cc1` [Compound 5e, N-Benzyl-2-hydroxy-5-((4-sulfamoylphenyl)diazenyl) benzamide], the half-maximal inhibitory concentration (IC50) at ovine COX-1 amounted to 8.3 ± 0.06 µM; on human recombinant COX-2, 0.12 ± 0.003 µM. Further, the zone of inhibition at 1000 µg/mL in test [1] came to 16 mm; in test [2], 25 mm; in test [3] it was 32 mm; in test [4], 35 mm; in test [5], 30 mm; in test [6], 16 mm. The zone of inhibition at 1000 µg/mL was determined as 18 mm in test [7], 16 mm in test [8] and 21 mm in [9]. Besides, the “SI COX-1/COX-2” value on human recombinant COX-2 was found to be 69.2.

Consider `CCCCNC(=O)c1cc(/N=N/c2ccc(S(=O)(=O)Nc3nccc(C)n3)cc2)ccc1O` [Compound 5d, N-Butyl-2-hydroxy-5-((4-(N-(4-methylpyrimidin-2yl)sulfamoyl)phenyl)diazenyl) benzamide], for which the figures for the 50% inhibitory concentration (IC50) against ovine COX-1 and at human recombinant COX-2 were 10.6 ± 0.08 µM and 0.09 ± 0.001 µM, respectively. The zone of inhibition at 1000 µg/mL is 16 mm in [1]; 26 mm in [2]; 28 mm in [3]; 32 mm in test [4]; 28 mm in [5]; 20 mm in test [6]. In addition, the zone of inhibition at 1000 µg/mL in [7] is 18 mm; in test [8], 16 mm; in test [9], 19 mm. The “SI COX-1/COX-2” value at human recombinant COX-2 was found to be 116.5.

Regarding `O=C(NCc1ccccc1)c1cc(/N=N/c2ccc(S(=O)(=O)Nc3nccs3)cc2)ccc1O` [Compound 5f, N-Benzyl-2-hydroxy-5-((4-(N-(thiazol-2-yl)sulfamoyl)phenyl)diazenyl) benzamide], the IC50 at ovine COX-1 is 9.7 ± 0.06 µM; at human recombinant COX-2, 0.11 ± 0.003 µM. Besides, the zone of inhibition at 1000 µg/mL in [1] stood at 16 mm; in test [2], 25 mm; in [3] it was 24 mm; in test [4], 36 mm; in [5], 27 mm; in test [6], 17 mm. Further, the zone of inhibition at 1000 µg/mL in [7] stood at 16 mm; in test [8], 16 mm; in test [9], 17 mm. Moreover, the “SI COX-1/COX-2” value on human recombinant COX-2 is recorded as 88.2.

As to `CCCCNC(=O)c1cc(/N=N/c2ccc(S(N)(=O)=O)cc2)ccc1O` [Compound 5a, N-Butyl-2-hydroxy-5-((4-sulfamoylphenyl)diazenyl) benzamide], the IC50 came out at 9.6 ± 0.06 µM against ovine COX-1 and 0.11 ± 0.0003 µM on human recombinant COX-2. The zone of inhibition at 1000 µg/mL in [1] stood at 15 mm; in test [2], 25 mm; in [3], 26 mm; in test [4], 33 mm; in [5], 29 mm; in [6] it was 17 mm. The zone of inhibition at 1000 µg/mL in [7] was 14 mm; in [8], 14 mm; in [9], 18 mm. In addition, at human recombinant COX-2, the “SI COX-1/COX-2” value is given as 87.3.

With `CC1(C)S[C@@H]2[C@H](NC(=O)[C@H](N)c3ccccc3)C(=O)N2[C@H]1C(=O)O` [Ampicillin, reference compound], the zone of inhibition at 1000 µg/mL in [3] worked out at 30 mm; in test [4], 32 mm; in test [5], 30 mm; in test [6], 15 mm.

Take `NS(=O)(=O)c1ccc(/N=N/c2ccc(O)c(C(=O)N3CCOCC3)c2)cc1` [Compound 5l, 4-((4-Hydroxy-3-(morpholine-4-carbonyl)phenyl)diazenyl) benzenesulfonamide]: the values for the IC50 on ovine COX-1 and at human recombinant COX-2 were 10.2 ± 0.08 µM and 0.08 ± 0.001 µM, respectively. The zone of inhibition at 1000 µg/mL came to 17 mm in test [1]; 26 mm in [2]; 18 mm in [3]; 32 mm in test [4]; 26 mm in test [5]; 20 mm in test [6]. For the same compound, the zone of inhibition at 1000 µg/mL in [7] was 14 mm; in test [8], 14 mm; in test [9], 19 mm. For the same compound, the “SI COX-1/COX-2” value at human recombinant COX-2 came out at 134.2.

On to `CCCCNC(=O)c1cc(/N=N/c2ccc(S(=O)(=O)Nc3ncccn3)cc2)ccc1O` [Compound 5c, N-Butyl-2-hydroxy-5-((4-(N-(pyrimidin-2-yl)sulfamoyl)phenyl)diazenyl) benzamide], for which the results for the 50% inhibitory concentration (IC50) on ovine COX-1 and at human recombinant COX-2 were 11.2 ± 0.08 µM and 0.08 ± 0.0003 µM, respectively. Moreover, the zone of inhibition at 1000 µg/mL amounted to 13 mm in test [1]; 25 mm in test [2]; 29 mm in [3]; 30 mm in [4]; 31 mm in [5]; 19 mm in test [6]. Besides, the zone of inhibition at 1000 µg/mL in test [7] came out at 16 mm; in test [8] it was 16 mm; in [9], 17 mm. Further, the “SI COX-1/COX-2” value on human recombinant COX-2 was 145.5.

`NS(=O)(=O)c1ccc(/N=N/c2ccc(O)c(C(=O)N3CCCCC3)c2)cc1` [Compound 5h, 4-((4-Hydroxy-3-(piperidine-1-carbonyl)phenyl)diazenyl) benzenesulfonamide]: the IC50 against ovine COX-1 was 8.2 ± 0.12 µM; at human recombinant COX-2 it was 0.14 µM. In addition, the zone of inhibition at 1000 µg/mL was 18 mm in [1]; 24 mm in test [2]; 22 mm in test [3]; 29 mm in test [4]; 29 mm in test [5]; 20 mm in test [6]. Further, the zone of inhibition at 1000 µg/mL in [7] stood at 16 mm; in test [8] it was 14 mm; in test [9], 19 mm. Besides, the “SI COX-1/COX-2” value on human recombinant COX-2 was found to be 58.6.

Consider `O=C(NCc1ccccc1)c1cc(/N=N/c2ccc(S(=O)(=O)Nc3ncccn3)cc2)ccc1O` [Compound 5g, N-Benzyl-2-hydroxy-5-((4-(N-(pyrimidin-2-yl)sulfamoyl)phenyl)diazenyl) benzamide], for which the figures for the IC50 at ovine COX-1 and on human recombinant COX-2 were 10.5 ± 0.08 µM and 0.1 ± 0.0003 µM, respectively. For the same compound, the zone of inhibition at 1000 µg/mL was found to be 13 mm in [1]; 26 mm in test [2]; 26 mm in test [3]; 32 mm in test [4]; 30 mm in [5]; 20 mm in [6]. Further, the zone of inhibition at 1000 µg/mL was determined as 14 mm in test [7], 16 mm in test [8] and 17 mm in test [9]. Also, on human recombinant COX-2, the “SI COX-1/COX-2” value came to 109.4.

Consider `C[C@H]1COc2c(N3CCN(C)CC3)c(F)cc3c(=O)c(C(=O)O)cn1c23` [Levofloxacin, levofloxacin, reference compound], for which the zone of inhibition at 1000 µg/mL in test [1] was 11 mm; in [2] it was 20 mm; in test [7], 8 mm; in [8], 11 mm; in test [9], 15 mm.
